Results as given in patent US20150197497A1, “SELECTIVE INHIBITORS OF HISTONE DEACETYLASE ISOFORM 6 AND METHODS THEREOF” (DANA-FARBER CANCER INSTITUTE, INC., priority 2011, published 2015).
pEC50, pIC50: −log10 of the molar value.

Key:
[1] = target: T1, HDAC1 (Homo sapiens, UniProt Q13547); assay: In vitro HDAC enzyme inhibition assay, HDAC1; format: biochemical; conditions: for HDAC1/HDAC6 in vitro selectivity: ratio of IC50 for HDAC1 relative to that of HDAC6; for pIC50: recombinant full-length HDAC1, substrate MAZ1600 21 μM
T1 construct: Recombinant, full-length HDAC protein (BPS Biosciences) was incubated with fluorophore conjugated substrate; purchased BPS Biosciences
T1 sequence (Q13547 whole entry): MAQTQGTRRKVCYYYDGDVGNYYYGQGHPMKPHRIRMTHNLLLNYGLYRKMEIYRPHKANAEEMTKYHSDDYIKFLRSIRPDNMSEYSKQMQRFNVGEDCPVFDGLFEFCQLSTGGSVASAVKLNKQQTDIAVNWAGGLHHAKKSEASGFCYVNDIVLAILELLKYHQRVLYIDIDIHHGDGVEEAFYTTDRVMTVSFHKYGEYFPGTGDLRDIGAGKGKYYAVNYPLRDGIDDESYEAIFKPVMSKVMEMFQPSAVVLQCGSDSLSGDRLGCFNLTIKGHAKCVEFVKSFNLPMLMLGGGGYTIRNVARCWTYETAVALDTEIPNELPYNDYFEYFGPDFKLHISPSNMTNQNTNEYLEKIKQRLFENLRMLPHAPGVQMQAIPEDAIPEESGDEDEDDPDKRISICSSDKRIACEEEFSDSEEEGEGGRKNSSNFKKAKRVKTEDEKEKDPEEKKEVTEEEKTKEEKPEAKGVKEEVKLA
Procedure: (§1) In vitro Histone Deacetylase enzyme assays were performed using Class I (isoforms: HDAC1, HDAC2, HDAC3 and HDAC8), class IIa (isoforms: HDAC4, HDAC5, HDAC7 and HDAC9) and class IIb (isoform HDAC6).
(§2) HDAC activities were determined in vitro with an optimized homogenous assay performed in a 384-well plate. Recombinant, full-length HDAC protein (BPS Biosciences) was incubated with fluorophore conjugated substrate, MAZ1600 and MAZ1675, at Km=[S]. […] Reactions were performed in assay buffer (50 mM HEPES, 100 mM KCl, 0.001% Tween-20, 0.05% BSA, 200 μM tris(2-carboxyethyl)phosphine (TCEP), pH 7.4) and followed for fluorogenic release of 7-amino-4-methylcoumarin from substrate upon deacetylase and trypsin enzymatic activity. Fluorescence measurements were obtained every five minutes using a multilabel plate reader and plate-stacker (Envision; Perkin-Elmer). Each plate was analyzed by plate repeat, and the first derivative within the linear range was imported into analytical software (Spotfire DecisionSite and GraphPad Prism). Replicate experimental data from incubations with inhibitor were normalized to controls.

[2] = target: T2, HDAC4 (Homo sapiens, UniProt P56524); assay: In vitro HDAC enzyme inhibition assay, HDAC4; format: biochemical; conditions: for HDAC4/HDAC6 in vitro selectivity: ratio of IC50 for HDAC4 relative to that of HDAC6; for pIC50: recombinant full-length HDAC4, substrate MAZ1675 10 μM; for selectivity toward HDAC6 compared to HDAC4 (in words): tested in vitro
T2 construct: Recombinant, full-length HDAC protein (BPS Biosciences) was incubated with fluorophore conjugated substrate; purchased BPS Biosciences
T2 sequence (P56524 whole entry): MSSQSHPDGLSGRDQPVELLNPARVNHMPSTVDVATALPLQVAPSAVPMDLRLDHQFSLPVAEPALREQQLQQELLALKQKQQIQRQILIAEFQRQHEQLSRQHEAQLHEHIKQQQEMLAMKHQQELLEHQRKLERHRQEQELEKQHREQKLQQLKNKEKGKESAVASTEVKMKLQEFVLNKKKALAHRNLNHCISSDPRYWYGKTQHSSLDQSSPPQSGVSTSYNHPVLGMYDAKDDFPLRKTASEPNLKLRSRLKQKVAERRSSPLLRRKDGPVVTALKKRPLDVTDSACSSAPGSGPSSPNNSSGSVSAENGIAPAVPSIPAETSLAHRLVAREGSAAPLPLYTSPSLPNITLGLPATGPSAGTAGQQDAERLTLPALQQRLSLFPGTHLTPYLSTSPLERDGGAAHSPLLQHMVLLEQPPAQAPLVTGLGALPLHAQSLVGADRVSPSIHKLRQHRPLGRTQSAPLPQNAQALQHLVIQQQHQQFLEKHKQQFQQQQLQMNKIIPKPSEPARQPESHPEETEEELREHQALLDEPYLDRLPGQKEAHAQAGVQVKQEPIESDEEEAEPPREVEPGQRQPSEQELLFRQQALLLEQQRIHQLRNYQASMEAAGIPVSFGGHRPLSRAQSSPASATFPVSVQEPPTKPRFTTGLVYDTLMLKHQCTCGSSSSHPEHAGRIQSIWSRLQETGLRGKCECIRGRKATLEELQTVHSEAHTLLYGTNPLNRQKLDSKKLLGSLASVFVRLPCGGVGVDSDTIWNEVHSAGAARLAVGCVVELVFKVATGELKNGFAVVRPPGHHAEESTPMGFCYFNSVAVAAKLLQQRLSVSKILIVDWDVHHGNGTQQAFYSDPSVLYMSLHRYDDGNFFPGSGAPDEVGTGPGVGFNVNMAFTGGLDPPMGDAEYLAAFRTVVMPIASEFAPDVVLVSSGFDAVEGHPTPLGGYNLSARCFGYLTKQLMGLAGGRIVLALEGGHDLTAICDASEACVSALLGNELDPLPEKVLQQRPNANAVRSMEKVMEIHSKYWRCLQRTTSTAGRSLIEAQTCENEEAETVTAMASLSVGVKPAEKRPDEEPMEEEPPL
Procedure: as §1, §2

[3] = target: T3, HDAC5 (Homo sapiens, UniProt Q9UQL6); assay: In vitro HDAC enzyme inhibition assay, HDAC5; format: biochemical; conditions: for HDAC5/HDAC6 in vitro selectivity: ratio of IC50 for HDAC5 relative to that of HDAC6; for pIC50: recombinant full-length HDAC5, substrate MAZ1675 40 μM; for selectivity toward HDAC6 compared to HDAC5 (in words): tested in vitro
T3 construct: Recombinant, full-length HDAC protein (BPS Biosciences) was incubated with fluorophore conjugated substrate; purchased BPS Biosciences
T3 sequence (Q9UQL6 whole entry): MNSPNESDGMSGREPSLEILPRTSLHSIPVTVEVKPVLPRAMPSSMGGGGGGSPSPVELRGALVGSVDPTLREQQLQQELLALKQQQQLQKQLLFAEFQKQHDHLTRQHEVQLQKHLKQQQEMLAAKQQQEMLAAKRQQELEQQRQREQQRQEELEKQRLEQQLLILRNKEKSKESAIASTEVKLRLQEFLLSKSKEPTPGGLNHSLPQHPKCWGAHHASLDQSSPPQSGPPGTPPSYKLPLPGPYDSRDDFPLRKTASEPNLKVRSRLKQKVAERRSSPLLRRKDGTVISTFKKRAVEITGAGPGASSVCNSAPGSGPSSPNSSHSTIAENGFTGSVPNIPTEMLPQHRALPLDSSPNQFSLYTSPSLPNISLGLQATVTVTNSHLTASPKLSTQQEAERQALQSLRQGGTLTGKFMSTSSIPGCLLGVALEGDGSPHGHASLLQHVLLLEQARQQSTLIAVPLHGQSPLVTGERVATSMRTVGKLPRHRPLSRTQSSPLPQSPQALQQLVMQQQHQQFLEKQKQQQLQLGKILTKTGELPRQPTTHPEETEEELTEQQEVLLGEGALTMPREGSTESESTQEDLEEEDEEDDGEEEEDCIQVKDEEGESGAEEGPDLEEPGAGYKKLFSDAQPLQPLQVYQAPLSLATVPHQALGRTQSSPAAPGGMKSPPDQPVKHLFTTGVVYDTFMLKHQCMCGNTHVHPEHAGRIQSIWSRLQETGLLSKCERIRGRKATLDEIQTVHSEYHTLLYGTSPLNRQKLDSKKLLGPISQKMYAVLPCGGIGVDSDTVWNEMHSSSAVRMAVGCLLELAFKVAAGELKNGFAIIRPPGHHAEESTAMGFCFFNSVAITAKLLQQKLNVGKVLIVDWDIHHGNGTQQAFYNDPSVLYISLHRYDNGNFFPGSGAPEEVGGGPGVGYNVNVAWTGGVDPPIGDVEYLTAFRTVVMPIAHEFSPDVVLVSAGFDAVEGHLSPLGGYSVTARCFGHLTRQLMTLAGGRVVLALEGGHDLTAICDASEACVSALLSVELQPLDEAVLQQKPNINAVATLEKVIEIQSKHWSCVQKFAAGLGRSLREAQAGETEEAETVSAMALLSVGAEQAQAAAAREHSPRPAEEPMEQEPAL
Procedure: as §1, §2

[4] = target: T4, HDAC6 (Homo sapiens, UniProt Q9UBN7); assay: In vitro HDAC enzyme inhibition assay, HDAC6; format: biochemical; conditions: recombinant full-length HDAC6, substrate MAZ1600 9 μM
T4 construct: Recombinant, full-length HDAC protein (BPS Biosciences) was incubated with fluorophore conjugated substrate; purchased BPS Biosciences
T4 sequence (Q9UBN7 1-1215): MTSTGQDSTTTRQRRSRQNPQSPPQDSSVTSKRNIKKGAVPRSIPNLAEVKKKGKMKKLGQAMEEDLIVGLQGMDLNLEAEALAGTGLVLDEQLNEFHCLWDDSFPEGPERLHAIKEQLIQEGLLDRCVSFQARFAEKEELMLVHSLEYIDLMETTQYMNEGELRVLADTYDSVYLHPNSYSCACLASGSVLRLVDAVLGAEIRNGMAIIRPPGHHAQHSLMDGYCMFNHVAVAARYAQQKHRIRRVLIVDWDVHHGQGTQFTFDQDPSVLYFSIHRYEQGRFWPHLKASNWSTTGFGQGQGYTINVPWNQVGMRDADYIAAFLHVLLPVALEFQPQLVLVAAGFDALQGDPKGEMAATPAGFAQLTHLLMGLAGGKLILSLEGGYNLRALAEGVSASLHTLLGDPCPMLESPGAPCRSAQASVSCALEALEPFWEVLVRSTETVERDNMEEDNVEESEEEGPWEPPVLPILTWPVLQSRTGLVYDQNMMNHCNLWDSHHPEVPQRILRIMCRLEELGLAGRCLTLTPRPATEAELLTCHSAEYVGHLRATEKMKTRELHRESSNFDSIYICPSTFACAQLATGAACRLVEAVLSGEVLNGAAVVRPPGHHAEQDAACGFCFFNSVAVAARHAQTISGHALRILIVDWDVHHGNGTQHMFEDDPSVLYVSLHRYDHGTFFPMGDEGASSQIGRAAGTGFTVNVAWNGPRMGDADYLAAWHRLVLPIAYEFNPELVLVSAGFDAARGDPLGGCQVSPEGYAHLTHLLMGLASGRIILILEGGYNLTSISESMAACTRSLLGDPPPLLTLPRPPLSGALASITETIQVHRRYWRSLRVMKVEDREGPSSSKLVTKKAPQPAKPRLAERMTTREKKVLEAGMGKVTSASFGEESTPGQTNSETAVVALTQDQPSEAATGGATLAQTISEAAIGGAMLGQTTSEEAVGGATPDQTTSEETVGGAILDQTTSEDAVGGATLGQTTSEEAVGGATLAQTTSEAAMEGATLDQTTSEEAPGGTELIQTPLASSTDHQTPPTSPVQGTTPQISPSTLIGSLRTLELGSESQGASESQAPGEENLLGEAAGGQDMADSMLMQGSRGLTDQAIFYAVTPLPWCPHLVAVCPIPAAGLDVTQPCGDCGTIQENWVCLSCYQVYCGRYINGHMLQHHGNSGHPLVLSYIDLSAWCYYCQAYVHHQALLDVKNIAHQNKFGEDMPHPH
Procedure: as §1, §2

[5] = system: acetylated histones; assay: High-content image analysis of induction of acetylated histones in A549 cells; conditions: for pEC50: Homo sapiens, A549, 8 h, read-out: EC50 for half-maximal induction of acetylated histones (AcHistone); for levels of acetylated histone, dose response (in words): A549 cells, FIG. 11
Procedure: Cells were treated with each test HDACi compound with an automated pin transfer instrument (Janus, Perkin Elmer) and incubated for 8 hours. […] Fixation solution was aspirated and 90 μL of washing solution (0.1% Triton X-100 in PBS) was added prior to 10 minute incubation at 4° C. Washing solution was aspirated and cells were incubated at 4° C. for about 1 hour in blocking solution (0.1% Triton X-100+2% BSA in PBS). Washing solution was aspirated, and cells were incubated for about 1 hour at 4° C. in primary antibody for acetylated-tubulin (Sigma T7451) and acetylated-histone (Cell Signaling #9441L) at a 1:1000 dilution in blocking solution. Primary antibody solution was aspirated, and cells were washed three times in 90 μL of washing solution. […] Secondary antibody and nuclear staining solution was aspirated and cells were washed three times in 90 μL of washing solution. After the third wash, 50 μL of PBS was added to each well. Image acquisition was done on a high content imaging microscope (ImageXpress Micro, Molecular Devices), and image analysis (MetaXpress, Molecular Devices) was performed to obtain average acetylated-tubulin and acetylated-histone signal per cell based on treatment. Replicate experimental data from incubations with inhibitor were normalized to DMSO controls.

Structure (SMILES) | HDAC1/HDAC6 in vitro selectivity [1] | pIC50 [1] | HDAC4/HDAC6 in vitro selectivity [2] | pIC50 [2] | HDAC5/HDAC6 in vitro selectivity [3] | pIC50 [3] | pIC50 [4] | pEC50 [5] | selectivity toward HDAC6 compared to HDAC4 (in words) [2] | selectivity toward HDAC6 compared to HDAC5 (in words) [3] | levels of acetylated histone, dose response (in words) [5]
O=C(NO)c1ccc(Cn2c(C(F)(F)F)nc3cc(Br)ccc32)cc1 [A5, 4-((5-bromo-2-(trifluoromethyl)-1H-benzo[d]imidazol-l-yl)methyl)-N-hydroxybenzamide] | 541 | 6.78 | 2783 | 6.06 | 476 | 6.83 | 9.51 | 5.71 |  |  | 
COc1ccc2c(c1)nc(C(F)(F)F)n2Cc1ccc(C(=O)NO)cc1 [A6, N-hydroxy-4-((5-methoxy-2-(trifluoromethyl)-1H-benzo[d]imidazol-1-yl)methyl)benzamide] | 629 | 6.61 | 2414 | 6.02 | 637 | 6.60 | 9.41 | 5.59 |  |  | 
Cc1ccc2c(c1)ncn2Cc1ccc(C(=O)NO)cc1 [A8, N-hydroxy-4-((5-methyl-1H-benzo[d]imidazol-1-yl)methyl)benzamide] | 688 | 6.58 | 7247 | 5.56 | 3687 | 5.85 | 9.42 | 7.10 |  |  | 
O=C(NO)c1ccc(Cn2cnc3ccccc32)cc1 [A7] | 2695 | 6.58 | 17962 | 5.76 | 9794 | 6.02 | 10.01 | 6.64 |  |  | 
O=C(NO)c1ccc(Cn2c(C(F)(F)F)nc3ccccc32)cc1 [A1, N-hydroxy-4-((2-(trifluoromethyl)-1H-benzo[d]imidazol-1-yl)methyl)benzamide] | 1444 | 6.17 | 2948 | 5.86 | 953 | 6.35 | 9.33 | 5.20 |  |  | absence of the dose-dependent response
COc1ccc2c(c1)ncn2Cc1ccc(C(=O)NO)cc1 [A12, N-hydroxy-4-((5-methoxy-1H-benzo[d]imidazol-1-yl)methyl)benzamide] | 1378 | 6.52 | 12423 | 5.57 | 7819 | 5.77 | 9.66 | 6.98 |  |  | 

Continued, in another order:

HDAC1/HDAC6 in vitro selectivity [1] | pIC50 [1] | HDAC4/HDAC6 in vitro selectivity [2] | pIC50 [2] | HDAC5/HDAC6 in vitro selectivity [3] | pIC50 [3] | pIC50 [4] | pEC50 [5] | Structure (SMILES) | selectivity toward HDAC6 compared to HDAC4 (in words) [2] | selectivity toward HDAC6 compared to HDAC5 (in words) [3] | levels of acetylated histone, dose response (in words) [5]
1224 | 7.50 | 60006 | 5.81 | 57925 | 5.83 | 10.59 | 5.81 | COc1ccc2c(c1)[nH]c(=O)n2Cc1ccc(C(=O)NO)cc1 [B7, N-hydroxy-4-((5-methoxy-2-oxo-2,3-dihydro-1H-benzo[d]imidazol-1-yl)methyl)benzamide] | exceptionally high selectivity (Inhibitors with in vitro selectivity values for HDAC6 of at least 30,000 are considered to have exceptionally high selectivity toward HDAC6) | exceptionally high selectivity (Inhibitors with in vitro selectivity values for HDAC6 of at least 30,000 are considered to have exceptionally high selectivity toward HDAC6) | 
8300 | 6.66 | 81082 | 5.67 | 68665 | 5.74 | 10.58 | 5.82 | O=C(NO)c1ccc(Cn2nnc3cc(F)ccc32)cc1 [C3, 4-((5-fluoro-1H-benzo[d][1,2,3]triazol-1-yl)methyl)-N-hydroxybenzamide] | exceptionally high selectivity (Inhibitors with in vitro selectivity values for HDAC6 of at least 30,000 are considered to have exceptionally high selectivity toward HDAC6) | exceptionally high selectivity (Inhibitors with in vitro selectivity values for HDAC6 of at least 30,000 are considered to have exceptionally high selectivity toward HDAC6) | 
1712 | 7.02 | 34808 | 5.72 | 26352 | 5.84 | 10.26 | 5.22 | O=C(NO)c1ccc(Cn2nnc3cc(Cl)ccc32)cc1 [C4, 4-((5-chloro-1H-benzo[d][1,2,3]triazol-1-yl)methyl)-N-hydroxybenzamide] | exceptionally high selectivity (Inhibitors with in vitro selectivity values for HDAC6 of at least 30,000 are considered to have exceptionally high selectivity toward HDAC6) |  | 
209 | 8.28 | 25301 | 6.19 | 22793 | 6.24 | 10.60 | 6.38 | O=C(NO)c1ccc(Cn2c(=O)[nH]c3cc(Cl)ccc32)cc1 [B4, 4-((5-chloro-2-oxo-2,3-dihydro-1H-benzo[d]imidazol-1-yl)methyl)-N-hydroxybenzamide] |  |  | 
1951 | 7.92 | 229041 | 5.85 | 122813 | 6.12 | 11.21 | ~6.20 | O=C(NO)c1ccc(Cn2c(=O)[nH]c3cc(C(F)(F)F)ccc32)cc1 [B6, N-hydroxy-4-((2-oxo-5-(trifluoromethyl)-2,3-dihydro-1H-benzo[d]imidazol-1-yl)methyl)benzamide] | exceptionally high selectivity (Inhibitors with in vitro selectivity values for HDAC6 of at least 30,000 are considered to have exceptionally high selectivity toward HDAC6) | exceptionally high selectivity (Inhibitors with in vitro selectivity values for HDAC6 of at least 30,000 are considered to have exceptionally high selectivity toward HDAC6) | absence of the dose-dependent response
2749 | 7.23 | 79927 | 5.76 | 51438 | 5.96 | 10.67 | 5.83 | O=C(NO)c1ccc(Cn2c(=O)[nH]c3cc(F)ccc32)cc1 [B3, 4-((5-fluoro-2-oxo-2,3-dihydro-1H-benzo[d]imidazol-1-yl)methyl)N-hydroxybenzamide] | exceptionally high selectivity (Inhibitors with in vitro selectivity values for HDAC6 of at least 30,000 are considered to have exceptionally high selectivity toward HDAC6) | exceptionally high selectivity (Inhibitors with in vitro selectivity values for HDAC6 of at least 30,000 are considered to have exceptionally high selectivity toward HDAC6) | 
